This note sets out measurements from patent US10899747B2, “Biaryl piperidine amide compounds and methods of use thereof” (Athenex, Inc., priority 2017, dated 2021).

What is called IC50 is the concentration at which inhibition is half-maximal.

In one test the test system is IL-2. Description: PHA-IL2 (cell activation and cytokine analysis). Format: cell-based. Particulars: 50% inhibition concentration class. In short, it runs like this: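 Cells were seeded in 96-well plates at 1.0-2.0×10^6 cells/ml in 150 ul of RPMI containing 0.5% fetal calf serum. Test compounds, at up to ≤20 uM, were preincubated with the cells for 30 minutes, then phytohemagglutinin (PHA) was added and cultures were stimulated for 24-48 hours at 37 degrees C./5% CO2. Supernatant IL-2 was then quantified by standard ELISA.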
`CCc1ccc(OCC(=O)N2CCC(CCc3ccc4c(c3)OCO4)CC2)c(-c2ccc(F)cc2)c1` [Compound 273] returned an IC50 of 1 to 10 µM. `Cn1ccc2cc(-c3ccccc3OCC(=O)N3CCC(CCc4ccc5c(c4)OCO5)CC3)ccc21` [Compound 384] displayed an IC50 of 1 to 10 µM. Same read-out and setting: the same measure for `O=C(COc1ccccc1-c1ccc(F)cc1)N1CCC(CCc2ccc(O)cc2)CC1` [Compound 280]: below 1 µM; for `O=C(C1CC1c1cc2c(cc1-c1ccccc1)OCO2)N1CCC(CCc2ccc3c(c2)OCO3)CC1` (centres unmarked) [Compound 260]: below 1 µM. `O=C1COc2ccc(CCC3CCN(C(=O)COc4ccccc4-c4ccccc4)CC3)cc2N1` [Compound 254] returned an IC50 of 1 to 10 µM. Still for that read-out and setting: next, `N#Cc1ccc(-c2ccccc2OCC(=O)N2CCC(CCc3cccc(OC4CC4)c3)CC2)cc1` [Compound 406]: below 1 µM; `O=C(COc1ccccc1-c1ccc(F)cc1)N1CCC(CCc2ccc3c(c2)OCO3)CC1` [Compound 164]: 1 to 10 µM; `O=C(COc1ccccc1-c1ccc(F)cc1F)N1CCC(CCc2ccc3c(c2)OCO3)CC1` [Compound 236]: 10 to 50 µM. In the case of `O=C(CCc1ccccc1-c1ccccc1)N1CCC(CCc2ccc3c(c2)OCO3)CC1` [Compound 219], the IC50 lay in the range of 10 to 50 µM. Still for that read-out and setting: the same measure for `O=C(C1CC1c1ccccc1-c1ccc(F)cc1O)N1CCC(CCc2ccccc2)CC1` (centres unmarked) [Compound 405]: below 1 µM. Still for that read-out and setting: the same measure for `O=C(COc1ccncc1-c1ccc(F)cc1O)N1CCC(CCc2ccc3c(c2)OCO3)CC1` [Compound 331]: 10 to 50 µM.

In the case of `COc1cc(CCC2CCN(C(=O)COc3cccnc3-c3ccc(F)cc3O)CC2)ccc1OCCN1CCOCC1` [Compound 381], the IC50 lay within 10 to 50 µM. In turn, `O=C(COc1ccccc1-c1ccc2[nH]cnc2c1)N1CCC(CCc2ccc3c(c2)OCO3)CC1` [Compound 382] showed an IC50 of 1 to 10 µM. The same measure, in the same setting: the same measure for `CC1Oc2ccc(CCC3CCN(C(=O)COc4ccccc4-c4ccc5[nH]ncc5c4)CC3)cc2OC1C` (centres unmarked) [Compound 268]: below 1 µM; for `O=C(COc1ccccc1-c1ccccc1CN1CCOCC1)N1CCC(CCc2ccc3c(c2)OCO3)CC1` [Compound 228]: 1 to 10 µM; for `O=C1COc2ccc(CCC3CCN(C(=O)COc4ccccc4-c4ccc(F)cc4)CC3)cc2N1` [Compound 258]: 1 to 10 µM.

Regarding `O=C(COc1cccnc1-c1ccc2[nH]ncc2c1)N1CCC(CCc2ccc3c(c2)OCO3)CC1` [Compound 328], the IC50 is 1 to 10 µM. The same measure, in the same setting: next, `CC(Oc1ccccc1-c1ccccc1)C(=O)N1CCC(CCc2ccc3c(c2)OCO3)CC1` (centres unmarked) [Compound 153]: 10 to 50 µM; `Cc1cnc(CCC2CCN(C(=O)COc3ccc(C#N)cc3-c3ccc(C#N)cc3)CC2)cn1` [Compound 426]: 1 to 10 µM; `O=C(COc1ccc(C(F)(F)F)cc1-c1ccc(F)cc1O)N1CCC(CCc2ccccc2)CC1` [Compound 351]: below 1 µM. Same read-out and setting: the same measure for `N#CCc1ccc(-c2ccccc2OCC(=O)N2CCC(CCc3ccc4c(c3)OCO4)CC2)cc1` [Compound 197]: below 1 µM; for `N#Cc1ccc(-c2ncccc2OCC(=O)N2CCC(CCc3ccc4c(c3)OCCCO4)CC2)cn1` [Compound 342]: 10 to 50 µM; for `COc1cccc(CCC2CCN(C(=O)COc3ccccc3-c3ccc(C(F)(F)F)cc3O)CC2)c1` [Compound 364]: 1 to 10 µM.

Molecule `O=C(CCc1ccccc1-c1ccccc1)N1CCC(CCc2cc(F)cc(F)c2)CC1` [Compound 220] displayed an IC50 of 10 to 50 µM. The same measure, in the same setting: the same measure for `Cc1nc2cc(-c3ccccc3OCC(=O)N3CCC(CCc4ccc5c(c4)OCO5)CC3)ccc2[nH]1` [Compound 388]: below 1 µM; for `N#Cc1ccc(-c2ccccc2CCC(=O)N2CCC(CCc3ccc4c(c3)OCO4)CC2)cc1` [Compound 225]: 1 to 10 µM; for `COc1cccc(CCC2CCN(C(=O)CCc3ccccc3-c3ccc(F)cc3)CC2)c1` [Compound 224]: 1 to 10 µM.

On to `O=C(COc1cccnc1-c1ccc(F)cc1O)N1CCC(CCc2ccc3c(c2)OCCCO3)CC1` [Compound 338], for which the IC50 was 1 to 10 µM.

The next test deals with NFAT. Put plainly: TCR-NFAT (luciferase-based reporter assay). The format is cell-based. Particulars: Homo sapiens; 50% inhibition concentration class. As for the experimental part:
Jurkat T cells are transiently transfected with a DNA plasmid encoding Firefly luciferase under the transcriptional control of an appropriate regulatory element that may include multimerized NFAT, AP-1, NFκB, or CREB binding sites. Cells are co-transfected with a DNA plasmid encoding Renilla luciferase under the transcriptional control of a constitutive regulatory element (e.g., HSV-TK promoter). 24 hours following transfection, cells are collected and re-seeded in 96-well plates at a final density of 1.0×10^6 cells/ml in 150 ul assay medium. Test compounds may be included at a final concentration of ≤20 uM and generally pre-incubated with cells for 30 minutes prior to stimulation. An appropriate stimulus is added, including but not limited to, a) phorbol myristate acetate (PMA) and ionomycin, or b) stimulatory antibodies to the TCR complex (e.g., anti-CD3ε) and CD28. Cell cultures are stimulated for 4-6 hours in a humidified incubator (37 degrees C./5% CO2). Cells are than lysed and the level of Firefly luciferase and Renilla Luciferase activity is determined using a standard assay (e.g., Promega's Dual Luciferase Reporter Assay System) and plate-reading luminometer. The ratio obtained by dividing activation induced Firefly luciferase activity by the constitutive Renilla luciferase activity is calculated and used as a quantitative measurement of cell activation.
Jurkat T cells were transiently transfected with a DNA plasmid encoding Firefly luciferase under the transcriptional control of an appropriate regulatory element that may include multimerized NFAT, AP-1, NFκB, or CREB binding sites. Cells were co-transfected with a DNA plasmid encoding Renilla luciferase under the transcriptional control of a constitutive regulatory element (e.g., HSV-TK promoter). 24 hours following transfection, cells were collected and re-seeded in 96-well plates at a final density of 1.0×10^6 cells/ml in 150 ul assay medium. Compound 413 was included at a final concentration of ≤20 uM and pre-incubated with cells for 30 minutes prior to stimulation. Mitogens PMA and ionomycin were added. Cell cultures were stimulated for 4-6 hours in a humidified incubator (37° C./5% CO2). Cells were then lysed and the level of Firefly luciferase and Renilla Luciferase activity was determined using a standard assay (e.g., Promega's Dual Luciferase Reporter Assay System) and plate-reading luminometer. The ratio obtained by dividing activation induced Firefly luciferase activity by the constitutive Renilla luciferase activity was calculated and used as a quantitative measurement of cell activation.
With `COc1ccc(CCC2CCN(C(=O)COc3c(F)cccc3-c3ccccc3)CC2)cc1OC` [Compound 133], the IC50 was in the range of 10 to 50 µM. The same measure, in the same setting: next, `O=C(COc1ccccc1-c1ccccc1)N1CCC(CCc2cccc(F)c2)CC1` [Compound 130]: 10 to 50 µM; `COc1ccc(CCC2CCN(C(=O)COc3c(C)cccc3-c3ccccc3)CC2)cc1OC` [Compound 138]: 1 to 10 µM.

As to `Cc1cccc(-c2ccccc2)c1OCC(=O)N1CCC(CCc2ccc(F)cc2)CC1` [Compound 140], the IC50 was in the range of 10 to 50 µM. On the same count and under the same terms, the same measure for `O=C(COc1ccccc1-c1ccccc1)N1CCC(CCc2ccc(F)cc2)CC1` [Compound 107]: 10 to 50 µM; for `O=C(O)c1ccc(CCC2CCN(C(=O)COc3ccccc3-c3ccccc3)CC2)cc1` [Compound 110]: 10 to 50 µM; for `COc1ccc(CCC2CCN(C(=O)COc3ccccc3-c3ccccc3)CC2)cc1OC` [Compound 109]: 1 to 10 µM.

Molecule `COc1cccc(CCC2CCN(C(=O)COc3ccccc3-c3ccccc3)CC2)c1` [Compound 128] had an IC50 of 10 to 50 µM.

`COc1ccc(CCC2CCN(C(=O)C(C)Oc3ccccc3-c3ccccc3)CC2)cc1OC` (centres unmarked) [Compound 144]: the IC50 was 1 to 10 µM. Still for that read-out and setting: the same measure for `O=C(CCc1cc2c(cc1-c1ccccc1)OCO2)N1CCC(CCc2ccc(O)cc2)CC1` [Compound 132]: 10 to 50 µM; for `O=C(COc1ccccc1-c1ccccc1)N1CCC(CCc2ccccc2OC(F)(F)F)CC1` [Compound 122]: 10 to 50 µM.

Regarding `O=C(COc1ccccc1-c1ccccc1)N1CCC(CCc2cc(F)cc(F)c2)CC1` [Compound 106], the IC50 lay within 1 to 10 µM. In turn, `CCOc1ccc(CCC2CCN(C(=O)COc3ccccc3-c3ccccc3)CC2)cc1` [Compound 129] yielded an IC50 of 10 to 50 µM. For the molecule `O=C(COc1c(F)cccc1-c1ccccc1)N1CCC(CCc2cc(F)cc(F)c2)CC1` [Compound 135], the IC50 was in the range of 10 to 50 µM. On the same count and under the same terms, next, `O=C(COc1ccccc1-c1ccccc1)N1CCC(CCc2cc(F)ccc2F)CC1` [Compound 123]: 10 to 50 µM; `O=C(COc1ccccc1-c1ccccc1)N1CCC(CCc2cccc(C(F)(F)F)c2)CC1` [Compound 127]: 10 to 50 µM. The same measure, in the same setting: next, `Cc1ccc(F)cc1CCC1CCN(C(=O)COc2ccccc2-c2ccccc2)CC1` [Compound 113]: 1 to 10 µM; `O=C(COc1cc(F)c(F)cc1-c1ccccc1)N1CCC(CCc2ccc(F)cc2)CC1` [Compound 137]: 10 to 50 µM; `COc1ccc(CCC2CCN(C(=O)COc3c(F)cccc3-c3ccccc3)CC2)cc1` [Compound 134]: 10 to 50 µM. The same measure, in the same setting: next, `O=C(NCc1ccccn1)c1ccc(CCC2CCN(C(=O)COc3ccccc3-c3ccccc3)CC2)cc1` [Compound 102]: 1 to 10 µM; `COc1ccc(CCC2CCN(C(=O)COc3cc(F)c(F)cc3-c3ccccc3)CC2)cc1OC` [Compound 142]: 1 to 10 µM. `O=C(COc1cc(F)ccc1-c1ccccc1)N1CCC(CCc2ccc3c(c2)OCO3)CC1` [Compound 151] registered an IC50 of 10 to 50 µM.

Regarding `O=C(COc1ccc(F)cc1-c1ccccc1)N1CCC(CCc2ccc3c(c2)OCO3)CC1` [Compound 152], the IC50 fell in the range of 10 to 50 µM. With `CCCC(Oc1ccccc1-c1ccccc1)C(=O)N1CCC(CCc2ccc(OC)c(OC)c2)CC1` (centres unmarked) [Compound 145], the IC50 was 1 to 10 µM.

As for `O=C(COc1ccccc1-c1ccccc1)N1CCC(CCc2ccc(OC(F)(F)F)cc2)CC1` [Compound 115], the IC50 lay in the range of 1 to 10 µM. Still for that read-out and setting: next, `COc1ccc(CCC2CCN(C(=O)COc3ccccc3-c3ccccc3)CC2)cc1` [Compound 108]: 1 to 10 µM; `COc1ccc(CCC2CCN(C(=O)COc3c(C)cccc3-c3ccccc3)CC2)cc1` [Compound 139]: 10 to 50 µM; `Cc1cc(OC(F)(F)F)ccc1CCC1CCN(C(=O)COc2ccccc2-c2ccccc2)CC1` [Compound 116]: 10 to 50 µM. Still for that read-out and setting: next, `O=C(COc1ccccc1-c1ccccc1)N1CCC(CCc2ccc(N3CCOCC3)cc2)CC1` [Compound 112]: 1 to 10 µM; `COc1ccc(CCC2CCN(C(=O)COc3ccccc3-c3ccccc3)CC2)c(OC)c1` [Compound 119]: 1 to 10 µM. Same read-out and setting: next, `O=C(COc1ccccc1-c1ccccc1)N1CCC(CCc2ccc(F)c(C(F)(F)F)c2)CC1` [Compound 121]: 10 to 50 µM.
